One molecule from EPA's ToxValDB 9.5 (doi:10.2903/j.efsa.2008.170r) can be followed below.

Bounds are passed on as bounds.

By NOAEL is commonly meant the highest tested level that showed no adverse finding.

Series [1] relates to Rattus norvegicus. The note with it: acute; mortality.
Series [2] has as its system Typhlodromus pyri. The note with it: not reported; mortality.
For series [3], the system named is Apis mellifera. The settings on record: acute; dermal; mortality.
Series [4] relates to Tagia sp.
In series [5] the test system is Canidae. The note with it: chronic; duration: 1 years; oral; Dog Other; body weight.
Series [6] relates to Daphnia magna. The settings on record: chronic/long-term.
Series [7] concerns Oncorhynchus mykiss.
Series [8] has as its system Oryctolagus sp.
For series [9], the system named is Bird. The settings on record: chronic/long-term; mortality.

As to `CC(=O)O.CC1CN(C2CCCCCCCCCCC2)CC(C)O1` (configuration not stated) [Dodemorph acetate], the LD50 was 4100 mg/kg in [1]; more than 76.6 µg/piece in series [3]; 21 mg/kg-day in [8] (acute, mortality); 9.4 mg/kg-day in [9]. Further, in [2], the LEL is 660 g/ha. In addition, the LC50 in series [4] (acute, duration: 14 days, mortality) is more than 824 mg/kg; in series [7] (acute, duration: 96 hours, mortality) it was 1.23 µg/mL. In addition, the NOEC in series [4] (chronic/long-term, duration: 56 days, other) came out at 103 mg/kg; in series [6] it was 0.08 mg/L; in series [7] (chronic/long-term, duration: 28 days, growth), 0.1 mg/L. The NOAEL turned out to be 10 mg/kg-day in [5] and 40 mg/kg-day in series [8] (developmental, development).
